Results: patent publication US20120029187A1, “HALOALKYLSULFONANILIDE DERIVATIVE” (Nissan Chemical Industries, Ltd., priority 2009, published 2012)

What was measured:
Type in all cases: in vivo
[1] = test system: barnyardgrass; assay: Test Example 1: herbicidal effects in preemergence treatment under submerged conditions; conditions: dose 2.52 g/a
Outline: (§1)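 Submerged conditions, 4 cm water over alluvial soil. Weeds sown and 2.5-leaf rice transplanted; compound applied preemergence to water surface, doses in g per are. Greenhouse, 25 to 30° C., three weeks, then 0–5 mortality rating.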

[2] = test system: bulrush; assay: as above; conditions: dose 2.52 g/a
Outline: as §1

[3] = test system: ducksalad; assay: as above; conditions: dose 2.52 g/a
Outline: as §1

[4] = test system: transplanted rice; assay: Test Example 1: preemergence treatment under submerged conditions, effect on crop; conditions: dose 2.52 g/a
Outline: as §1

[5] = test system: barnyardgrass; assay: Test Example 2: herbicidal effects during the vegetation period under submerged conditions; conditions: treatment during the vegetation period under submerged conditions; dose 2.52 g/a
Outline: (§2)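 Barnyardgrass, bulrush and ducksalad were co-sown in alluvial soil flooded to 4 cm and grown in a greenhouse at 25 to 30° C. At the 1- or 2-leaf stage, water-diluted emulsifiable concentrates went onto the water surface at set doses (g/a). Herbicidal effect was scored three weeks later on a graded scale.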

[6] = test system: bulrush; assay: as above; conditions: treatment during the vegetation period under submerged conditions; dose 2.52 g/a
Outline: as §2

[7] = test system: ducksalad; assay: as above; conditions: treatment during the vegetation period under submerged conditions; dose 2.52 g/a
Outline: as §2

[8] = test system: Italian ryegrass; assay: Test Example 3: herbicidal effects in soil treatment; conditions: dose 3.2 g/a
Outline: (§3)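 Seeds were sown in sterilized diluvial soil and covered with about 1.5 cm of soil. Compounds, formulated as emulsifiable concentrates and diluted with water, were sprayed evenly over the soil surface at set doses in g/a. Herbicidal effect was scored on a rating scale three weeks later.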

[9] = test system: barnyardgrass; assay: as above; conditions: dose 3.2 g/a
Outline: as §3

[10] = test system: beadstraw; assay: as above; conditions: dose 3.2 g/a
Outline: as §3

[11] = test system: common chickweed; assay: as above; conditions: dose 3.2 g/a
Outline: as §3

[12] = test system: common lambsquater; assay: as above; conditions: dose 3.2 g/a
Outline: as §3

[13] = test system: common ragweed; assay: as above; conditions: dose 3.2 g/a
Outline: as §3

[14] = test system: giant foxtail; assay: as above; conditions: dose 3.2 g/a
Outline: as §3

[15] = test system: large crabgrass; assay: as above; conditions: dose 3.2 g/a
Outline: as §3

[16] = test system: posumbu knotweed; assay: as above; conditions: dose 3.2 g/a
Outline: as §3

[17] = test system: redroot pigweed; assay: as above; conditions: dose 3.2 g/a
Outline: as §3

[18] = test system: water foxtail; assay: as above; conditions: dose 3.2 g/a
Outline: as §3

[19] = test system: wild oat; assay: as above; conditions: dose 3.2 g/a
Outline: as §3

[20] = test system: Italian ryegrass; assay: Test Example 4: herbicidal effect in foliage treatment; conditions: dose 3.2 g/a, three weeks after application
Outline: (§4)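 Seeds sown in sterilized diluvial soil under ~1.5 cm soil cover and grown 14 days in a greenhouse at 25 to 30° C. Emulsifiable concentrates diluted with water were then sprayed uniformly on foliage at predetermined doses (g/a). Herbicidal effect was scored three weeks after application on a graded evaluation scale.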

[21] = test system: barnyardgrass; assay: as above; conditions: dose 3.2 g/a, three weeks after application
Outline: as §4

[22] = test system: beadstraw; assay: as above; conditions: dose 3.2 g/a, three weeks after application
Outline: as §4

[23] = test system: common chickweed; assay: as above; conditions: dose 3.2 g/a, three weeks after application
Outline: as §4

[24] = test system: common lambsquater; assay: as above; conditions: dose 3.2 g/a, three weeks after application
Outline: as §4

[25] = test system: common ragweed; assay: as above; conditions: dose 3.2 g/a, three weeks after application
Outline: as §4

[26] = test system: giant foxtail; assay: as above; conditions: dose 3.2 g/a, three weeks after application
Outline: as §4

[27] = test system: large crabgrass; assay: as above; conditions: dose 3.2 g/a, three weeks after application
Outline: as §4

[28] = test system: posumbu knotweed; assay: as above; conditions: dose 3.2 g/a, three weeks after application
Outline: as §4

[29] = test system: redroot pigweed; assay: as above; conditions: dose 3.2 g/a, three weeks after application
Outline: as §4

[30] = test system: velvetleaf; assay: as above; conditions: dose 3.2 g/a, three weeks after application
Outline: as §4

[31] = test system: water foxtail; assay: as above; conditions: dose 3.2 g/a, three weeks after application
Outline: as §4

[32] = test system: wild oat; assay: as above; conditions: dose 3.2 g/a, three weeks after application
Outline: as §4

[33] = test system: velvetleaf; assay: Test Example 3: herbicidal effects in soil treatment; conditions: dose 3.2 g/a
Outline: as §3

Row | Compound | A: barnyardgrass, herbicidal effect (evaluation scale 0-5) [1] | B: bulrush, herbicidal effect (evaluation scale 0-5) [2] | C: ducksalad, herbicidal effect (evaluation scale 0-5) [3] | a: transplanted rice, effect on crop (evaluation scale 0-5) [4] | A: barnyardgrass, herbicidal effect (evaluation scale 0-5) [5] | B: bulrush, herbicidal effect (evaluation scale 0-5) [6] | C: ducksalad, herbicidal effect (evaluation scale 0-5) [7] | H: Italian ryegrass, herbicidal effect (evaluation scale 0-5) [8] | A: barnyardgrass, herbicidal effect (evaluation scale 0-5) [9] | O: beadstraw, herbicidal effect (evaluation scale 0-5) [10] | N: common chickweed, herbicidal effect (evaluation scale 0-5) [11] | L: common lambsquater, herbicidal effect (evaluation scale 0-5) [12] | J: common ragweed, herbicidal effect (evaluation scale 0-5) [13] | E: giant foxtail, herbicidal effect (evaluation scale 0-5) [14] | D: large crabgrass, herbicidal effect (evaluation scale 0-5) [15] | K: redroot pigweed, herbicidal effect (evaluation scale 0-5) [17] | G: water foxtail, herbicidal effect (evaluation scale 0-5) [18] | F: wild oat, herbicidal effect (evaluation scale 0-5) [19] | H: Italian ryegrass, herbicidal effect [20] | A: barnyardgrass, herbicidal effect [21] | other results
1 | CCOC(=O)N(c1ccccc1CN1COC(C(F)(F)F)CC1=O)S(=O)(=O)C(F)(F)F (stereo not shown) [II-15] | 5 (mortality of 90% or above (nearly complete death)) | 5 (mortality of 90% or above (nearly complete death)) | 5 (mortality of 90% or above (nearly complete death)) | 0 (mortality of less than 5% (almost ineffective)) | 5 (mortality of 90% or above (nearly complete death)) | 5 (mortality of 90% or above (nearly complete death)) | 5 (mortality of 90% or above (nearly complete death)) | 4 (mortality of at least 70% and less than 90%) | 4 (mortality of at least 70% and less than 90%) | 0 (mortality of less than 5% (almost ineffective)) | 4 (mortality of at least 70% and less than 90%) | 4 (mortality of at least 70% and less than 90%) | 4 (mortality of at least 70% and less than 90%) | 0 (mortality of less than 5% (almost ineffective)) | 5 (mortality of 90% or above (nearly complete death)) | 4 (mortality of at least 70% and less than 90%) | 5 (mortality of 90% or above (nearly complete death)) | 0 (mortality of less than 5% (almost ineffective)) | 1 (mortality of at least 5% and less than 20%) | 4 (mortality of at least 70% and less than 90%) | M: posumbu knotweed, herbicidal effect (evaluation scale 0-5) [16]: 0 (mortality of less than 5% (almost ineffective)); O: beadstraw, herbicidal effect [22]: 4 (mortality of at least 70% and less than 90%); N: common chickweed, herbicidal effect [23]: 4 (mortality of at least 70% and less than 90%); L: common lambsquater, herbicidal effect [24]: 4 (mortality of at least 70% and less than 90%); J: common ragweed, herbicidal effect [25]: 3 (mortality of at least 40% and less than 70%); E: giant foxtail, herbicidal effect [26]: 3 (mortality of at least 40% and less than 70%); D: large crabgrass, herbicidal effect [27]: 4 (mortality of at least 70% and less than 90%); M: posumbu knotweed, herbicidal effect [28]: 3 (mortality of at least 40% and less than 70%); K: redroot pigweed, herbicidal effect [29]: 0 (mortality of less than 5% (almost ineffective)); I: velvetleaf, herbicidal effect [30]: 5 (mortality of 90% or above (nearly complete death)); G: water foxtail, herbicidal effect [31]: 5 (mortality of 90% or above (nearly complete death)); F: wild oat, herbicidal effect [32]: 0 (mortality of less than 5% (almost ineffective))
2 | CCOC(=O)N(c1ccccc1CN1CC(C)(C)OCC1=O)S(=O)(=O)C(F)(F)F [Compound I-16] | 5 (mortality of 90% or above (nearly complete death)) | 5 (mortality of 90% or above (nearly complete death)) | 5 (mortality of 90% or above (nearly complete death)) | 2 (mortality of at least 20% and less than 40%) | 5 (mortality of 90% or above (nearly complete death)) | 5 (mortality of 90% or above (nearly complete death)) | 5 (mortality of 90% or above (nearly complete death)) | 4 (mortality of at least 70% and less than 90%) | 5 (mortality of 90% or above (nearly complete death)) | 0 (mortality of less than 5% (almost ineffective)) | 5 (mortality of 90% or above (nearly complete death)) | 3 (mortality of at least 40% and less than 70%) | 5 (mortality of 90% or above (nearly complete death)) | 5 (mortality of 90% or above (nearly complete death)) | 5 (mortality of 90% or above (nearly complete death)) | 5 (mortality of 90% or above (nearly complete death)) | 5 (mortality of 90% or above (nearly complete death)) | 3 (mortality of at least 40% and less than 70%) | 4 (mortality of at least 70% and less than 90%) | 5 (mortality of 90% or above (nearly complete death)) | I: velvetleaf, herbicidal effect (evaluation scale 0-5) [33]: 5 (mortality of 90% or above (nearly complete death)); O: beadstraw, herbicidal effect [22]: 3 (mortality of at least 40% and less than 70%); N: common chickweed, herbicidal effect [23]: 5 (mortality of 90% or above (nearly complete death)); L: common lambsquater, herbicidal effect [24]: 2 (mortality of at least 20% and less than 40%); J: common ragweed, herbicidal effect [25]: 5 (mortality of 90% or above (nearly complete death)); E: giant foxtail, herbicidal effect [26]: 4 (mortality of at least 70% and less than 90%); D: large crabgrass, herbicidal effect [27]: 4 (mortality of at least 70% and less than 90%); M: posumbu knotweed, herbicidal effect [28]: 3 (mortality of at least 40% and less than 70%); K: redroot pigweed, herbicidal effect [29]: 2 (mortality of at least 20% and less than 40%); I: velvetleaf, herbicidal effect [30]: 5 (mortality of 90% or above (nearly complete death)); G: water foxtail, herbicidal effect [31]: 5 (mortality of 90% or above (nearly complete death)); F: wild oat, herbicidal effect [32]: 3 (mortality of at least 40% and less than 70%)
